Assay results taken from PubChem BioAssay (NCI).
“And” between values parts separate entries of the source, which are not always exact repeats. Equal values may be shown once.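 Exposure lasted 48 hours, with cells grown in 96-well plates and compounds tested at five concentrations. At the GI50, growth is halved. TGI denotes the concentration required for complete inhibition of growth.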

How the values were obtained:
Assay in all cases: NCI tumour cell line growth inhibition, 48 h
DLD-1 colon = system: DLD-1 colon
DMS 114 small cell lung = system: DMS 114 small cell lung
DMS 273 small cell lung = system: DMS 273 small cell lung
KM20L2 colon = system: KM20L2 colon
P388 leukemia = system: P388 leukemia
P388/ADR leukemia = system: P388/ADR leukemia
SN12K1 renal = system: SN12K1 renal
SNB-78 CNS = system: SNB-78 CNS
HOP-18 NSCLC = system: HOP-18 NSCLC
LXFL 529 NSCLC = system: LXFL 529 NSCLC
RXF-631 renal = system: RXF-631 renal

Compound | GI50 (DLD-1 colon) [nM] | TGI (DLD-1 colon) | GI50 (DMS 114 small cell lung) [nM] | TGI (DMS 114 small cell lung) | GI50 (DMS 273 small cell lung) [nM] | TGI (DMS 273 small cell lung) | GI50 (KM20L2 colon) [nM] | TGI (KM20L2 colon) | GI50 (P388 leukemia) [pM] | TGI (P388 leukemia) | GI50 (P388/ADR leukemia) [nM] | TGI (P388/ADR leukemia) | GI50 (SN12K1 renal) | TGI (SN12K1 renal) | GI50 (SNB-78 CNS) [nM] | TGI (SNB-78 CNS) | TGI (HOP-18 NSCLC) [µM] | TGI (LXFL 529 NSCLC) [µM] | TGI (RXF-631 renal) [µM]
CC[C@@]1(O)CC(OC2CC(N3CCOCC3)C(O)C(C)O2)c2c(O)c3c(c(O)c2[C@H]1O)C(=O)c1cccc(O)c1C3=O (some centres undefined) | 32.4 | 2.78 µM and 3.2 µM | 52.5 | 968 nM and 1080 nM | 18 | 1100 nM and 393 nM | 102 | 3.84 µM and 1.86 µM | 0.179 | 1080 nM and 799 nM | 4.4 | 2940 nM and 770 nM | 15.3 nM and 10.2 nM | 403 nM and 297 nM | 640 | 2.83 µM and 24.3 µM | – | – | –
N#CC1(CCCI)CCCC1 | – | > 100 µM | – | 25300 nM | – | > 100000 nM | – | > 100 µM | – | – | – | – | – | – | – | 38.3 µM | 36.3 | > 100 | 3.23
